In brackets after ≈: the same amount, converted by molar mass.
Key:
[1] = test system: Mycobacterium tuberculosis; assay: Antimycobacterial activity against Mycobacterium bovis BCG; assay type: functional, organism-based; details: variant bovis BCG
[2] = test system: Mycobacterium tuberculosis; assay: Antimycobacterial activity against Mycobacterium africanum measured up to 2 weeks; assay type: functional; details: variant africanum, 336 h, time weeks <=2
[3] = test system: Mycobacterium tuberculosis; assay: Antimycobacterial activity Mycobacterium bovis BCG measured up to 2 weeks; assay type: functional; details: variant bovis BCG, 336 h, time weeks <=2
[4] = test system: Mycobacterium tuberculosis; assay: Antimycobacterial activity against Mycobacterium bovis BCG assessed as inhibition of bacteria at 30 ug/ml by nitrate reductase assay; assay type: functional; details: variant bovis BCG

O=C(O)CN1C(=O)/C(=C/c2ccc(Cl)cc2)SC1=S
IC50 [1]: 7.4 µg/mL (≈ 23.6 µM)

O=C(O)CCCCCC1NC(=O)CS1 (centres undefined)
MIC [2]: 0.2 µM (≈ 0.0435 µg/mL)
MIC [3]: 1.3 µM (≈ 0.282 µg/mL)

Cc1nc(-c2cnccn2)sc1C(=O)NN1C(=O)CSC1c1ccccc1 (centres undefined)
inhibition at 30 µg/mL [4]: 62%
